Measured values reported in PMC10470521, “Structural basis of a bi-functional malonyl-CoA reductase (MCR) from the photosynthetic green non-sulfur bacterium Roseiflexus castenholzii” (mBio, 2023).

Legend:
RfxMCR-C = target: T1, RfxMCR-C (Roseiflexus castenholzii, UniProt A7NN59); experiment: X-ray crystal structure, […] Å; format: binding; conditions: SDR3 / ED interface
T1 construct: gene Rcas_2929; C-terminal fragment Gly573-Val1229 (SDR3-ED-SDR4), N-terminal His6 tag (pET28a), E. coli BL21(DE3)
T1 sequence (A7NN59 entry or part of it): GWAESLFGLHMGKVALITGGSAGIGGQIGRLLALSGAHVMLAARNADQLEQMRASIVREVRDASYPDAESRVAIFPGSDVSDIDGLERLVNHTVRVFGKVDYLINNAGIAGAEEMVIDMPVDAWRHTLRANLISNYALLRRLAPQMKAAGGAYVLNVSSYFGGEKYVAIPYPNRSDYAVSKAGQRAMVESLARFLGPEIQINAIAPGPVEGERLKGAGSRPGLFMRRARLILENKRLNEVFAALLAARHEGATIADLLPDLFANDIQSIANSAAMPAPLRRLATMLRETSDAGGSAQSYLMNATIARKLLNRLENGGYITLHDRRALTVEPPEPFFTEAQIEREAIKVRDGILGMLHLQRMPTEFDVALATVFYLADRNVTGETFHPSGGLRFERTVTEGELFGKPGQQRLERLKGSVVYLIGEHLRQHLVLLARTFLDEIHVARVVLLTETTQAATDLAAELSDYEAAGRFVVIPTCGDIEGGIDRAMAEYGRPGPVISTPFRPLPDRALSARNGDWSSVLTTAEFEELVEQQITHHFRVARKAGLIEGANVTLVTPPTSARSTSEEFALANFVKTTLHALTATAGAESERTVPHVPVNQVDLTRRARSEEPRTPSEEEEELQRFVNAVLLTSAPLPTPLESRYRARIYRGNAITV

RfxMCR-N = target: T2, RfxMCR-N (Roseiflexus castenholzii, UniProt A7NN59); experiment: X-ray crystal structure, […] Å; format: binding; conditions: ternary complex with NADP+; SDR1 site; MSA not added, modelled in extra density; crystals grown in 1 M sodium malonate pH 5.0
T2 construct: gene Rcas_2929; N-terminal fragment Met1-Phe572 (SDR1-SDR2), C-terminal His6 tag (pET28a), E. coli BL21(DE3)
T2 sequence (A7NN59 entry or part of it): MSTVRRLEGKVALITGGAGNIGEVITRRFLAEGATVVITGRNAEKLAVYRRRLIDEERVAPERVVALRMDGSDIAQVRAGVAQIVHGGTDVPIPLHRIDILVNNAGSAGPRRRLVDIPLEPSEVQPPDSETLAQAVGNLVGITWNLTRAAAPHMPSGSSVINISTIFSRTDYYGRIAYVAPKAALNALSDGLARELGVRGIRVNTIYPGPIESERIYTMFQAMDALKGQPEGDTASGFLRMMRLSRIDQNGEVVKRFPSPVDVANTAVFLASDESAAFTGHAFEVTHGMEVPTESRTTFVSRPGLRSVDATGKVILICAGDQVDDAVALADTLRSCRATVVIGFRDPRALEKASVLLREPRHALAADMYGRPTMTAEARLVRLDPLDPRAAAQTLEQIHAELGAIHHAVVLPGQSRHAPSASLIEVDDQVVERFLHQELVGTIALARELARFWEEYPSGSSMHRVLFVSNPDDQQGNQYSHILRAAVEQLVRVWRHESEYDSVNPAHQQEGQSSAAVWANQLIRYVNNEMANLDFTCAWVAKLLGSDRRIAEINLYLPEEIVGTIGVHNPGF

full-length RfxMCR [1] = target: T3, full-length RfxMCR (Roseiflexus castenholzii, UniProt A7NN59, R799A); experiment: NADPH oxidation at […] nm; format: biochemical; conditions: 0.4 mM NADPH, 5 mM MgCl2, 100 mM Tris-HCl pH 8.0, 150 mM NaCl, 50°C; apparent; overall two-step reduction; extra domain
T3 construct: gene Rcas_2929; full length Met1-Val1229, C-terminal His6 tag (pET20b), E. coli BL21(DE3); homodimer ~270 kDa
T3 sequence (A7NN59 entry or part of it R799A): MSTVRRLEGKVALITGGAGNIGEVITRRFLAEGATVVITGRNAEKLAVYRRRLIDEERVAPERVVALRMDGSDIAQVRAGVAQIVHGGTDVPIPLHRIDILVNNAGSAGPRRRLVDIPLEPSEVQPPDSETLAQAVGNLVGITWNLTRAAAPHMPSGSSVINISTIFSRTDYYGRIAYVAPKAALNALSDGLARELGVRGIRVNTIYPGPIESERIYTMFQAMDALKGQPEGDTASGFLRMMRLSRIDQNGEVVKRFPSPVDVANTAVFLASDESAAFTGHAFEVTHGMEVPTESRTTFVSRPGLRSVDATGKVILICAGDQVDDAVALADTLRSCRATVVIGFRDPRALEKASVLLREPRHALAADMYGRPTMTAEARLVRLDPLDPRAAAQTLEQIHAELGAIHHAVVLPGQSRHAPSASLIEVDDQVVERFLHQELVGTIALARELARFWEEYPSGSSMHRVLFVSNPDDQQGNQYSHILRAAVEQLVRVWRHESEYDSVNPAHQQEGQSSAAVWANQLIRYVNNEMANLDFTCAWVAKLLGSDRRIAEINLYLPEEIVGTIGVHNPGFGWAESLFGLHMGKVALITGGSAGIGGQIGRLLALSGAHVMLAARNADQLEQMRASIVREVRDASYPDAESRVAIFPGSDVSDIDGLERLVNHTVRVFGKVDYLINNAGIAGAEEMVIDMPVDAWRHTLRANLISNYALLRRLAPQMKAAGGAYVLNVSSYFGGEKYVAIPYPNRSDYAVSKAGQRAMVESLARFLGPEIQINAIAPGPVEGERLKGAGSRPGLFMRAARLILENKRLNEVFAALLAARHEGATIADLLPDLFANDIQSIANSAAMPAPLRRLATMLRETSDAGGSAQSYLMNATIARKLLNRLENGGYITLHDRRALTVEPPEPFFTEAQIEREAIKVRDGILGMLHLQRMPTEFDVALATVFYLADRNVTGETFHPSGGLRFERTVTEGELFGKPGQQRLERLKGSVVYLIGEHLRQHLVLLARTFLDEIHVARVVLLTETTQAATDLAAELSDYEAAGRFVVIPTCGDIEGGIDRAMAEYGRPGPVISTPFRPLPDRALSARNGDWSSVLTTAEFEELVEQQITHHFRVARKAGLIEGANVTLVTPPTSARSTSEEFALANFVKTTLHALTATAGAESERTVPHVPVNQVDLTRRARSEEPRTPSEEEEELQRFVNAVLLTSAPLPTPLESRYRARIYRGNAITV

full-length RfxMCR [2] = target: T4, full-length RfxMCR (Roseiflexus castenholzii, UniProt A7NN59, S731A); experiment: NADPH oxidation at […] nm; format: biochemical; conditions: 0.4 mM NADPH, 5 mM MgCl2, 100 mM Tris-HCl pH 8.0, 150 mM NaCl, 50°C; apparent; overall two-step reduction; SDR3 site
T4 construct: gene Rcas_2929; full length Met1-Val1229, C-terminal His6 tag (pET20b), E. coli BL21(DE3); homodimer ~270 kDa

full-length RfxMCR [3] = target: T5, full-length RfxMCR (Roseiflexus castenholzii, UniProt A7NN59, Y749A); experiment: NADPH oxidation at […] nm; format: biochemical; conditions: 0.4 mM NADPH, 5 mM MgCl2, 100 mM Tris-HCl pH 8.0, 150 mM NaCl, 50°C; apparent; overall two-step reduction
T5 construct: gene Rcas_2929; full length Met1-Val1229, C-terminal His6 tag (pET20b), E. coli BL21(DE3); homodimer ~270 kDa
T5 sequence (A7NN59 entry or part of it Y749A): as the sequence (A7NN59 entry or part of it R799A) above, with Y749A, A799R counted along it

full-length RfxMCR [4] = target: T6, full-length RfxMCR (Roseiflexus castenholzii, UniProt A7NN59, Y178A); experiment: NADPH oxidation at […] nm; format: biochemical; conditions: 0.4 mM NADPH, 5 mM MgCl2, 100 mM Tris-HCl pH 8.0, 150 mM NaCl, 50°C; apparent; overall two-step reduction
T6 construct: gene Rcas_2929; full length Met1-Val1229, C-terminal His6 tag (pET20b), E. coli BL21(DE3); homodimer ~270 kDa

full-length RfxMCR [5] = target: T7, full-length RfxMCR (Roseiflexus castenholzii, UniProt A7NN59, K753A); experiment: NADPH oxidation at […] nm; format: biochemical; conditions: 0.4 mM NADPH, 5 mM MgCl2, 100 mM Tris-HCl pH 8.0, 150 mM NaCl, 50°C; apparent; overall two-step reduction
T7 construct: gene Rcas_2929; full length Met1-Val1229, C-terminal His6 tag (pET20b), E. coli BL21(DE3); homodimer ~270 kDa
T7 sequence (A7NN59 entry or part of it K753A): as the sequence (A7NN59 entry or part of it R799A) above, with K753A, A799R counted along it

full-length RfxMCR [6] = target: T8, full-length RfxMCR (Roseiflexus castenholzii, UniProt A7NN59, L795A); experiment: NADPH oxidation at […] nm; format: biochemical; conditions: 0.4 mM NADPH, 5 mM MgCl2, 100 mM Tris-HCl pH 8.0, 150 mM NaCl, 50°C; apparent; overall two-step reduction
T8 construct: gene Rcas_2929; full length Met1-Val1229, C-terminal His6 tag (pET20b), E. coli BL21(DE3); homodimer ~270 kDa
T8 sequence (A7NN59 entry or part of it L795A): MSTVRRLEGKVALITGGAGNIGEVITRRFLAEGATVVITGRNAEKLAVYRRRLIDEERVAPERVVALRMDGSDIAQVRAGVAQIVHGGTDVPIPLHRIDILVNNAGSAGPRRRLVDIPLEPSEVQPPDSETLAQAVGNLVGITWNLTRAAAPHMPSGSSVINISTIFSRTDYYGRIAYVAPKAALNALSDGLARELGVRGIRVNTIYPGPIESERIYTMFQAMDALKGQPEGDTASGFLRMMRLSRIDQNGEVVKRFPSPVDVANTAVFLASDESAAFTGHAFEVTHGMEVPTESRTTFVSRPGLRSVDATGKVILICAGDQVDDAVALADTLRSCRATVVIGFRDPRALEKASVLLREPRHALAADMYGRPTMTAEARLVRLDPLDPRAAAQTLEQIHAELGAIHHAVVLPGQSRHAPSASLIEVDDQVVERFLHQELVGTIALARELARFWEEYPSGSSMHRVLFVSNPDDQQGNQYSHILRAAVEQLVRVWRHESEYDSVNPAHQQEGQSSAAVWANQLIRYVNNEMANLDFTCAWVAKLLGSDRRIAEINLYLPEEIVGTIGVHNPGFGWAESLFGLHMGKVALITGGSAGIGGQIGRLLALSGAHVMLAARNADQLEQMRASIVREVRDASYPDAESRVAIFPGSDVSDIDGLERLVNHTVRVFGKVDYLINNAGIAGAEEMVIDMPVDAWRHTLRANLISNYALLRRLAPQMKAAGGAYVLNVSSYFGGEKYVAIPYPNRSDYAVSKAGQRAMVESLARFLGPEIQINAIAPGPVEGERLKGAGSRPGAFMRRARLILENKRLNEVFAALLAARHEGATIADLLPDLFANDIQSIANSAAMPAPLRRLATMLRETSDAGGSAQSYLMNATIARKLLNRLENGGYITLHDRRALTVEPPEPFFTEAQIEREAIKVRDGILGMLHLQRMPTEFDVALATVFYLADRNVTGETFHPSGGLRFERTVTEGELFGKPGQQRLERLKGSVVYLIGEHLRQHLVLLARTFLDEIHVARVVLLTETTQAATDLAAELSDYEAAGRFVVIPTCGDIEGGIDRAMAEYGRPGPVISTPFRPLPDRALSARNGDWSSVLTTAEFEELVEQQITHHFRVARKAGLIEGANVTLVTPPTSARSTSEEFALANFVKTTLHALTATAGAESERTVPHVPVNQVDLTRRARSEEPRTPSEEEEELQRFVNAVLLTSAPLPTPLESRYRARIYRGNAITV

full-length RfxMCR [7] = target: T9, full-length RfxMCR (Roseiflexus castenholzii, UniProt A7NN59, R785A); experiment: NADPH oxidation at […] nm; format: biochemical; conditions: 0.4 mM NADPH, 5 mM MgCl2, 100 mM Tris-HCl pH 8.0, 150 mM NaCl, 50°C; apparent; overall two-step reduction; extra domain
T9 construct: gene Rcas_2929; full length Met1-Val1229, C-terminal His6 tag (pET20b), E. coli BL21(DE3); homodimer ~270 kDa

full-length RfxMCR [8] = target: T10, full-length RfxMCR (Roseiflexus castenholzii, UniProt A7NN59, R746A); experiment: NADPH oxidation at […] nm; format: biochemical; conditions: 0.4 mM NADPH, 5 mM MgCl2, 100 mM Tris-HCl pH 8.0, 150 mM NaCl, 50°C; apparent; overall two-step reduction; SDR3 site
T10 construct: gene Rcas_2929; full length Met1-Val1229, C-terminal His6 tag (pET20b), E. coli BL21(DE3); homodimer ~270 kDa
T10 sequence (A7NN59 entry or part of it R746A): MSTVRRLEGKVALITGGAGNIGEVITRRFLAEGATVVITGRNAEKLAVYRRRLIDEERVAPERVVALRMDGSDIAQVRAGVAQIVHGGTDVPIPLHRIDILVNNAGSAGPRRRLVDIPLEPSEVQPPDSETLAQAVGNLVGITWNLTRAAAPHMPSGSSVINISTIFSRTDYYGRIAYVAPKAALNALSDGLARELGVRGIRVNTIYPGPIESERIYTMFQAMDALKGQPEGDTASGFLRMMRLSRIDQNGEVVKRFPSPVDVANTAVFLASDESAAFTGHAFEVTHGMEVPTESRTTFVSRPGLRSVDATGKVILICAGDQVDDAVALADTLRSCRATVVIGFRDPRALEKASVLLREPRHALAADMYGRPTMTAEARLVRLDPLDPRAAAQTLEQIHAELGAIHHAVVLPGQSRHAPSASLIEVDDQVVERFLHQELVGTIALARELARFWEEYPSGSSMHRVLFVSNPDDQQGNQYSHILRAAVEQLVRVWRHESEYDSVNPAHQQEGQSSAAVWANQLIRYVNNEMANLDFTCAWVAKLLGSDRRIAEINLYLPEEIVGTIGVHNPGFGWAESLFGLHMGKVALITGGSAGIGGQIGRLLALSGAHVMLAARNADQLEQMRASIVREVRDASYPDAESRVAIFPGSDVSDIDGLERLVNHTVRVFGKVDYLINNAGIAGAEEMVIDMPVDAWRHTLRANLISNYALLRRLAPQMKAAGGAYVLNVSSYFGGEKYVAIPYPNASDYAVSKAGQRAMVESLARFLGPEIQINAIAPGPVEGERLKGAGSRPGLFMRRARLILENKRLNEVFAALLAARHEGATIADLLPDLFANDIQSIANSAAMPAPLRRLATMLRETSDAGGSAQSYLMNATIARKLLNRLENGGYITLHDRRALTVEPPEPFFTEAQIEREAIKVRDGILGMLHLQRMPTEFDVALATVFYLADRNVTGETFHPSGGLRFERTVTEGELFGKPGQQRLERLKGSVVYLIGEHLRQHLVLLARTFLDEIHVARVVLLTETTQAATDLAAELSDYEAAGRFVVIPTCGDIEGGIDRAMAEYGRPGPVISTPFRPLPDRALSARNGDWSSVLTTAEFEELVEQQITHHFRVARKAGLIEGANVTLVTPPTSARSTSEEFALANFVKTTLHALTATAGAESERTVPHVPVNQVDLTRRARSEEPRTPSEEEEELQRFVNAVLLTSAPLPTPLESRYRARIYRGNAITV

full-length RfxMCR [9] = target: T11, full-length RfxMCR (Roseiflexus castenholzii, UniProt A7NN59, K182A); experiment: NADPH oxidation at […] nm; format: biochemical; conditions: 0.4 mM NADPH, 5 mM MgCl2, 100 mM Tris-HCl pH 8.0, 150 mM NaCl, 50°C; apparent; overall two-step reduction
T11 construct: gene Rcas_2929; full length Met1-Val1229, C-terminal His6 tag (pET20b), E. coli BL21(DE3); homodimer ~270 kDa

full-length RfxMCR [10] = target: T12, full-length RfxMCR (Roseiflexus castenholzii, UniProt A7NN59, T165A); experiment: NADPH oxidation at […] nm; format: biochemical; conditions: 0.4 mM NADPH, 5 mM MgCl2, 100 mM Tris-HCl pH 8.0, 150 mM NaCl, 50°C; apparent; overall two-step reduction; SDR1 site (second step, MSA to 3-HP)
T12 construct: gene Rcas_2929; full length Met1-Val1229, C-terminal His6 tag (pET20b), E. coli BL21(DE3); homodimer ~270 kDa

[11] = target: RfxMCR-C (Gly573-Val1229) (Roseiflexus castenholzii DSM 13941) (UniProt A7NN59); experiment: crystal structure; RfxMCR-C with NADP+ and MSA; 1.6 M sodium formate, 0.1 M Bis-tris propane pH 7.0, 16°C; P6(5)22, dimer by crystal packing; 2.3 Å

**Q.** For `NC(=O)c1ccc[n+]([C@@H]2O[C@H](COP(=O)(O)OP(=O)(O)OC[C@H]3O[C@@H](n4cnc5c(N)ncnc54)[C@H](OP(=O)(O)O)[C@@H]3O)[C@@H](O)[C@H]2O)c1` [NADP^+], which “X-ray crystal structure, 2.3 Å” value (RfxMCR-C; ternary complex with MSA) is on record?
**A.** a cofactor NADP^+ and intermediate MSA were resolved at the interface between the SDR3

**Q.** Which “X-ray crystal structure, 2.3 Å” value (RfxMCR-C; ternary complex with NADP+, MSA not added, modelled in density) does the source give for `O=CCC(=O)O` [malonate semialdehyde] here?
**A.** a cofactor NADP^+ and intermediate MSA were resolved at the interface between the SDR3

**Q.** And the “X-ray crystal structure, 2.0 Å” value (RfxMCR-N)?
**A.** extra electron density that precisely matched the reduction intermediate MSA

**Q.** `CC(C)(COP(=O)(O)OP(=O)(O)OC[C@H]1O[C@@H](n2cnc3c(N)ncnc32)[C@H](O)[C@@H]1OP(=O)(O)O)[C@@H](O)C(=O)NCCC(=O)NCCSC(=O)CC(=O)O` [malonyl-CoA] was tested. Which overall enzymatic activity (full-length RfxMCR [1]) did it give?
**A.** Ser731, Tyr749, Lys753, and Arg799 completely eliminated enzymatic activity

**Q.** What about the overall enzymatic activity (full-length RfxMCR [2]) of the same molecule?
**A.** Ser731, Tyr749, Lys753, and Arg799 completely eliminated enzymatic activity

**Q.** What about the overall enzymatic activity (full-length RfxMCR [3]) of the same molecule?
**A.** Ser731, Tyr749, Lys753, and Arg799 completely eliminated enzymatic activity

**Q.** And the overall enzymatic activity (full-length RfxMCR [4])?
**A.** Site-directed mutation of Thr165, Tyr172, Arg175, Tyr178, and Lys182 to Ala residues

**Q.** And the overall enzymatic activity (full-length RfxMCR [5])?
**A.** Ser731, Tyr749, Lys753, and Arg799 completely eliminated enzymatic activity

**Q.** What about the overall enzymatic activity (full-length RfxMCR [6]) of the same molecule?
**A.** mutagenesis of Arg746, Arg785, and Leu795

**Q.** What about the overall enzymatic activity (full-length RfxMCR [7]) of the same molecule?
**A.** mutagenesis of Arg746, Arg785, and Leu795

**Q.** And the overall enzymatic activity (full-length RfxMCR [8])?
**A.** mutagenesis of Arg746, Arg785, and Leu795

**Q.** What about the overall enzymatic activity (full-length RfxMCR [9]) of the same molecule?
**A.** Site-directed mutation of Thr165, Tyr172, Arg175, Tyr178, and Lys182 to Ala residues

**Q.** What about the overall enzymatic activity (full-length RfxMCR [10]) of the same molecule?
**A.** Site-directed mutation of Thr165, Tyr172, Arg175, Tyr178, and Lys182 to Ala residues

**Q.** Which stoichiometry N [11] does the source give for “RfxMCR-C (Gly573-Val1229) (from UniProt A7NN59 573-1229) (domain or fragment)” here?
**A.** 2
